Results: patent US20260325667A1, “TISSUE FACTOR ANTIBODY-DRUG CONJUGATES AND USES THEREOF” (priority 2022, published 2026)
Where two headings read alike, the source gives them in different places.

Key:
A431 [1] = assay: In vitro cytotoxicity (CellTiter Glo, 5 days), A431; format: cell-based; settings: controls (FITC-ADC 8 DAR 6.36; FITC-ADC 4 DAR 3.39; free belotecan)
Method: (§1) Various cancer cell lines were plated in 96-well plates (Costar 3610) at a density of 1.5×10^3 cells/well in 100 μL of growth media. The next day, cells were treated with […] of test compounds serially-diluted in media. After incubation at 37° C. with […] for 5 days, viability was measured using the Promega CellTiter Glo® reagent according to the manufacturer's recommendations. GI50 curves were calculated in GraphPad Prism normalized to the payload concentration.

HPAF-II = assay: In vitro cytotoxicity (CellTiter Glo, 5 days), HPAF-II; format: cell-based; settings: controls (FITC-ADC 8 DAR 6.36; FITC-ADC 4 DAR 3.39; free belotecan)
Method: as §1

[2] = NHP payload (belotecan) concentration in plasma; format: in vivo, cynomolgus monkeys; settings: cynomolgus, ADC dosed q3wX2
Method: To assess toxicity of the TF-ADCs, female cynomolgus (“cyno”) monkeys (n=2 per group) were treated via IV bolus with test articles at the doses indicated in the table below on days 1 and 22 (q3wX2). All monkeys that survived until day 43 of the study underwent euthanasia for necropsy and anatomic pathology evaluation. Clinical observations, ECG, eye exams, clinical and anatomic pathology, and TK analysis were performed.
Further, payload concentrations in plasma of cyno treated with various dosages of TF-ADC 6-4 and TF-ADC 6-8 were evaluated and the data is shown in FIGS. 14A and 14B. […] The plasma level of belotecan was low relative to ADCs and total antibody with a molar ratio (AUC0-21d) ranging from 169 to 519 for TF-ADC 6-4 and 130 to 156 for TF-ADC 6-8. TF-ADC 6-4 had approximately 2-fold higher belotecan compared to TF-ADC 6-8 for the same dose level. […] Belotecan's apparent half-life ranged between 3 to 6 days (Formation rate-limited).

A431 [3] = assay: HMGB1 release from treated tumor cells (Lumit); format: cell-based; settings: TF+ tumor cell line, e.g.
Method: (§2) Tumor cell treatment: Tumor cells (such as A431 or SKOV-3) were trypsinized by washing with PBS, then 3 mL of TrypLE express was added to each T75 flask and incubated for 3-5 minutes at 37° C. DMEM containing 10% FBS (Gibco) was added to each flask to gently wash cells. Cells were then transferred to a conical tube and centrifuged at 1000RPM for 5 minutes and resuspended in fresh medium. Cells were counted and the cell concentration was adjusted to 10,000 cells per 80 μL. Cells were plated at 80 μL per well and incubated at 37° C., 5% CO2 for 5 hours to allow cells to adhere to the plate surface. 5× dilutions of treatment compounds were made in medium. 20 µL of treatment were added to each well and mixed gently and incubated at 37° C., 5% CO2. Belotecan, MMAE, and a benchmark ADC (also referred to herein as BM ADC, CAS 1418731-10-8 and INN 10148) were also tested in parallel and served as additional controls.
(§3) ICD molecule, such as ATP and HMGB1, readouts were performed as follows. For ATP release measurement, Promega RealTimeGlo extracellular ATP assay kit (Promega, Cat #GA5010) was used according to the manufacturer's instructions. […] ATP release was measured beginning 24 hours after treatment with readings every 10 minutes on a Spectramax i3× with temperature control at 37° C. […] HMGB1 release was measured at 48- and 72-hours post-treatment.

A431 [4] = assay: ATP release from treated tumor cells (RealTimeGlo); format: cell-based; settings: TF+ tumor cell line, e.g.
Method: as §2, §3

BxPC-3 = assay: In vitro cytotoxicity (CellTiter Glo, 5 days), BxPC-3; format: cell-based; settings: controls (FITC-ADC 8 DAR 6.36; FITC-ADC 4 DAR 3.39; free belotecan), FITC-ADC 4 value marked *: likely not accurate due to curve shape
Method: as §1

[5] = read-out: IC50 - drug concentration
[6] = read-out: IC50 - mAb concentration

**Q.** Which results are given for `CC[C@@]1(O)C(=O)OCc2c1cc1n(c2=O)Cc2c-1nc1ccccc1c2CCNC(C)C` [belotecan]?
**A.** IC50 (A431 [1]; Homo sapiens, A-431, 120 h, FITC-ADC 4 value marked *: likely not accurate due to curve shape, read-out: IC50 - mAb concentration): 2.36 nM; IC50 (A431 [1]; Homo sapiens, A-431, 120 h, read-out: IC50 - drug concentration): 2.36 nM; IC50 (A431 [1]; FITC-ADC 4 value marked *: likely not accurate due to curve shape, read-out: IC50 - mAb concentration): 2.62 nM; IC50 (A431 [1]; [5]): 2.62 nM; IC50 (HPAF-II; Homo sapiens, 120 h, read-out: IC50 - drug concentration): 3.04 nM; IC50 (HPAF-II; Homo sapiens, 120 h, read-out: IC50 - mAb concentration): 3.04 nM; IC50 (HPAF-II; [5]): 2.45 nM; IC50 (HPAF-II; [6]): 2.45 nM; accumulation of payload [2]: Minimal accumulation of payload was observed; HMGB1 release (A431 [3]): induced the release; ATP release (A431 [4]): induced the release; IC50 (BxPC-3; Homo sapiens, BXPC-3, 120 h, read-out: IC50 - drug concentration): 2.62 nM; IC50 (BxPC-3; Homo sapiens, BXPC-3, 120 h, read-out: IC50 - mAb concentration): 2.62 nM; IC50 (BxPC-3; [5]): 2.56 nM; IC50 (BxPC-3; [6]): 2.56 nM
